Assay results published in article PMC3986399, “Discovery of Novel Allosteric Effectors Based on the Predicted Allosteric Sites for Escherichia coli D-3-Phosphoglycerate Dehydrogenase” (PLoS ONE, 2014).
Entries after “also recorded” stand apart in the source; their conditions may differ. Like-named read-outs stand apart in the source and are kept apart here.

How the values were obtained:
PGDH [1] = target: T1, PGDH (Escherichia coli, UniProt P0A9T0); assay: Serine-compound competition experiment; format: biochemical; settings: compound 40 µM; serine 1.6 to 200 µM
T1 construct: The PGDH coding region was ligated into the pET21a(+) vector; made in house; host or cells: E. coli BL21 (DE3)
Description: Serine-compound competition experiment
Serine-compound competition experiments were did like that for compound-substrate experiments, before the reaction was started, the enzyme was pre-incubated with the mixture of serine and compound for 6 minutes. During this process, compound was kept at a constant inhibitory concentration, and the serine concentrations were changed from 1.6 to 200
μM. The concentrations of compounds 1 and 2 were selected as 40 μM. […]

PGDH mutant S146A = target: T2, PGDH mutant S146A (Escherichia coli, UniProt P0A9T0, S146A); assay: PGDH enzyme assay, mutant S146A; format: biochemical
T2 construct: The PGDH coding region was ligated into the pET21a(+) vector; made in house; host or cells: E. coli BL21 (DE3)
Description: (§1) To evaluate the effects of compounds on PGDH activity, compounds were first examined to have no fluorescence absorption at 456 nm, and then pre-incubated with enzyme samples in the assay buffer (20 mM tris-(hydroxymethyl) aminomethane hydrochloride (Tris-HCl), pH 7.5, 1 mM DTT, 1 mM EDTA, and 0.25 mM NADH) for 6 min at 25°C. […] Fluorescence signals were recorded for 3 min with a kinetics mode program. The cofactor concentration in the assay buffer was 0.25 mM and the substrate concentration was 5 mM [28]. IC50 or AC50 values were obtained by fitting the data to a three-parameter Hill model of the graph of log dose against percentage inhibition or activation from at least three sets of experiments. Percentages of inhibition or activation were calculated according to the following equation: [drawing 1] in which Vo and Vi represent the maximum reaction rate of the enzyme incubated without or with compounds and Vn represents the maximum degradation rate of NADH.
(§2) All mutagenesis experiments were carried out according to the instructions of the QuikChange site-directed mutagenesis (Stratagene). The plasmid pET-21a(+)-containing wild-type (WT) PGDH was mutated to obtain the mutants E129A, S146A, F147A, K256A, K152AK230A, and E129AK256A. The DNA sequences of all mutants were verified by DNA sequencing. […]

PGDH mutant K152AK230A = target: T3, PGDH mutant K152AK230A (Escherichia coli, UniProt P0A9T0, K152A/K230A); assay: PGDH enzyme assay, mutant K152AK230A; format: biochemical
T3 construct: The PGDH coding region was ligated into the pET21a(+) vector; made in house; host or cells: E. coli BL21 (DE3)
Description: as §1, §2

PGDH [2] = target: T1, PGDH; assay: Enzyme kinetic analysis (Michaelis-Menten); format: biochemical; settings: compound 0 to 120 µM
Description: As in the competition experiments, enzyme reaction velocity vs. substrate relationships were measured at various compound concentrations. The compound concentrations used were 120, 80, 40, 24, 8, 4.8, 1.6, and 0.32 µM.
To evaluate the effects of the compounds on enzyme kinetics, Michaelis-Menten plots of PGDH incubated with different concentrations of compounds were measured. The apparent kinetic parameters kcat and Km were estimated by non-linear curve-fitting using Graphpad Prism 5.0 software, and their values are shown in Figure 6. […] The kcat of the pure enzyme was about 2.6 s^−1, which was in between the kcat values of the enzyme at the molecular concentrations of 8 µM and 24 µM.

E. coli PGDH (wild type) = target: T4, E. coli PGDH (wild type) (Escherichia coli, UniProt P0A9T0); assay: PGDH enzyme assay (NADH fluorescence, α-ketoglutarate substrate), wild type; format: biochemical; settings: for inhibition at 50 µM: compound 50 µM; for maximum enzyme activity (residual activity, activation): low compound concentration, >100% = activation
T4 construct: The PGDH coding region was ligated into the pET21a(+) vector; made in house; host or cells: E. coli BL21 (DE3)
Description: as §1

PGDH mutant F147A [3] = target: T5, PGDH mutant F147A (Escherichia coli, UniProt P0A9T0, F147A); assay: PGDH enzyme assay, mutant F147A; format: biochemical
T5 construct: The PGDH coding region was ligated into the pET21a(+) vector; made in house; host or cells: E. coli BL21 (DE3)
Description: as §1, §2

PGDH (WT) = target: T6, PGDH (WT) (Escherichia coli, UniProt P0A9T0); assay: SPR direct binding to immobilized PGDH
T6 construct: The PGDH coding region was ligated into the pET21a(+) vector; made in house; host or cells: E. coli BL21 (DE3)
Description: (§3) PGDH and its mutants were immobilized on a CM5 sensor chip by using standard amine-coupling at 25°C with running buffer HBS-P (20 mM […], 0.05% surfactant P-20, pH 7.4), respectively. […] A reference flow cell was activated and blocked in the absence of PGDH. […] Regeneration was achieved by extended washing with the running buffer after each sample injection. […] In the binding site verification SPR experiments, the sensor chip surface was immobilized with WT PGDH and its mutants to a RU of 4000, respectively. The analytes, compounds 1 and 2, were injected over the chip at a fixed concentration of 50 and 25 µM, respectively.

PGDH mutant E129AK256A [4] = target: T7, PGDH mutant E129AK256A (Escherichia coli, UniProt P0A9T0, E129A/K256A); assay: SPR binding site verification, site I mutant E129AK256A; settings: compound 1 at 50 µM, compound 2 at 25 µM
T7 construct: The PGDH coding region was ligated into the pET21a(+) vector; made in house; host or cells: E. coli BL21 (DE3)
Description: as §3
(§4) We also tested whether compounds 1 and 2 might interact with the other allosteric site (site II) we discovered before. The key binding residue in site II, Y410 was mutated to A. The binding of these two compounds with the wild type enzyme, Y410A, and two site I mutants (F147A, E129AK256A) were tested using SPR direct binding assay. The immobilization levels for WT, Y410A, F147A and E129AK256A were kept almost the same (3506, 3792, 3756 and 3600 RU, respectively) and the concentrations of compounds 1 and 2 were kept at 50 µM and 25 µM. […] This verified that both compounds 1 and 2 bind specifically to the site I as designed.

PGDH [5] = target: T1, PGDH; assay: Compound-substrate competition experiments; format: biochemical; settings: for competition with the substrate: constant compound concentration, increasing α-ketoglutarate; for inhibition at 50 µM: substrate increased from 156 µM to 10 mM, compound 50 µM, read-out: percentage of inhibition with increasing substrate
Description: To investigate competition effects between the compounds and the substrate α-ketoglutarate, we performed compound-substrate competition experiments as follows:
Before α-ketoglutarate was added to start the reaction, the enzyme sample was pre-incubated with the cofactor and the compound for 6 min at 25°C. […] The cofactor NADH concentration was kept constant at 0.25 mM. […]
Serine-compound competition experiment […]
Competition experiments for analogs and the substrate
1-3 were kept at 92, 100, and 120 μM, while gradually increasing the substrate
concentration from 78 μM to 625 μM. […]

PGDH mutant F147A [6] = target: T5, PGDH mutant F147A; assay: SPR binding site verification, site I mutant F147A; settings: compound 1 at 50 µM, compound 2 at 25 µM
Description: as §3, §4

PGDH mutant Y410A = target: T8, PGDH mutant Y410A (Escherichia coli, UniProt P0A9T0, Y410A); assay: SPR binding site verification, site II mutant Y410A; settings: compound 1 at 50 µM, compound 2 at 25 µM
T8 construct: The PGDH coding region was ligated into the pET21a(+) vector; made in house
Description: as §3, §4

PGDH mutant E129A = target: T9, PGDH mutant E129A (Escherichia coli, UniProt P0A9T0, E129A); assay: PGDH enzyme assay, mutant E129A; format: biochemical
T9 construct: The PGDH coding region was ligated into the pET21a(+) vector; made in house; host or cells: E. coli BL21 (DE3)
Description: as §1, §2

PGDH mutant K256A = target: T10, PGDH mutant K256A (Escherichia coli, UniProt P0A9T0, K256A); assay: PGDH enzyme assay, mutant K256A; format: biochemical
T10 construct: The PGDH coding region was ligated into the pET21a(+) vector; made in house; host or cells: E. coli BL21 (DE3)
Description: as §1, §2

PGDH mutant E129AK256A [7] = target: T7, PGDH mutant E129AK256A; assay: PGDH enzyme assay, mutant E129AK256A; format: biochemical
Description: as §1, §2

PGDH from pea = settings: PGDH from peas, cited from earlier work
[8] = wild type PGDH, substrate 5 mM, NADH 0.25 mM, read-out: IC50

Compound | influence on the inhibitory ability of serine (PGDH [1]) | effect on Km / substrate affinity of the enzyme (PGDH [2]) | inhibition at 50 µM (E. coli PGDH (wild type); substrate 5 mM) | maximum enzyme activity (residual activity, activation) (E. coli PGDH (wild type); substrate 5 mM) | concentration above which the compound is an inhibitor (E. coli PGDH (wild type); substrate 5 mM) | IC50 (PGDH mutant F147A [3]) | compound binding ability to E129AK256A versus WT (PGDH mutant E129AK256A [4]) | competition with the substrate (PGDH [5]) | inhibition at 50 µM (PGDH [5]) | compound binding ability to F147A versus WT (PGDH mutant F147A [6]) | compound binding ability to Y410A versus WT (PGDH mutant Y410A) | IC50 (E. coli PGDH (wild type); [8]) | other results
O=C1NC(=S)NC(=O)C1=Cc1ccc(OC(=O)c2ccc3nc(-c4ccccc4)c(-c4ccccc4)nc3c2)cc1 [Compound 1] | no significant effect; also recorded: not significantly influenced | enhanced the substrate affinity for the enzyme | ~50% | about 140% | > 16 µM | 181 ± 26 µM | a large decrease in compound binding ability | do not competitively bind to the same site | 20 to 50% | a large decrease in compound binding ability | retained the same extent of compound binding ability as WT |  | IC50 (PGDH mutant S146A): 175 ± 88 µM; IC50 (PGDH mutant K152AK230A): > 200 µM; IC50 (E. coli PGDH (wild type)): 34.8 ± 1.3 µM; Kd (PGDH (WT)): 42.6 ± 2.1 µM
Cc1ccc(N2NC(=O)/C(=C/c3ccc(-c4ccc(S(=O)(=O)Nc5nccs5)cc4)o3)C2=O)cc1C [Compound 2] | no significant effect; also recorded: not significantly influenced | enhanced the substrate affinity for the enzyme | ~50% | 163% | above 1.6 µM | 158 ± 22 µM | a large decrease in compound binding ability | do not competitively bind to the same site | 20 to 50% | a large decrease in compound binding ability | retained the same extent of compound binding ability as WT | 58 ± 9 µM | IC50 (PGDH mutant E129A): 99 ± 13 µM; IC50 (PGDH mutant K256A): > 200 µM; AC50 (E. coli PGDH (wild type); fit of activation dose response curve, substrate 5 mM): 0.0347 µM; concentration at which activation starts (E. coli PGDH (wild type); substrate 5 mM): about 2 nM; concentration of highest activation (E. coli PGDH (wild type); substrate 5 mM): about 64 nM; IC50 (PGDH mutant E129AK256A [7]): > 200 µM; Kd (PGDH (WT); SPR, 1:1 Langmuir binding model, PGDH 800 RU, read-out: KD): 19 ± 1.9 µM
Cc1ccccc1C(=O)Nc1ccccc1C(=O)N/N=C/c1ccccc1OCc1ccccc1[N+](=O)[O-] [Compound 3] |  |  |  |  |  |  |  | percentage inhibition did not change |  |  |  | 131 ± 12 µM | inhibition at 130 µM (E. coli PGDH (wild type); compound 130 µM, substrate 5 mM): ~50%; maximal inhibition rate (E. coli PGDH (wild type); partial dose-inhibition curve due to solubility restriction): 61.9%; SPR binding ability (PGDH (WT); no reliable KD obtained): weak binding ability
CSCC[C@H](N)C(=O)O [L-methionine] |  |  |  |  |  |  |  |  |  |  |  |  | increase in enzyme activity (PGDH from pea; at maximal activation): four- to five; concentration of maximal activation (PGDH from pea): 10 mM
